pEC50: −log10 of the molar value.
Assays:
mouse receptor Olfr166 = target: T1, mouse receptor Olfr166 (Mus musculus, UniProt Q0VEL6); assay: cell-based dose-response, cAMP increase by HTRF, HEK293T cells (endogenous RTP1 activated) co-transfected with human Golf, Lucy-FLAG-Rho tagged receptor
T1 construct: cAMP HTRF
T1 sequence (Q0VEL6 1-312): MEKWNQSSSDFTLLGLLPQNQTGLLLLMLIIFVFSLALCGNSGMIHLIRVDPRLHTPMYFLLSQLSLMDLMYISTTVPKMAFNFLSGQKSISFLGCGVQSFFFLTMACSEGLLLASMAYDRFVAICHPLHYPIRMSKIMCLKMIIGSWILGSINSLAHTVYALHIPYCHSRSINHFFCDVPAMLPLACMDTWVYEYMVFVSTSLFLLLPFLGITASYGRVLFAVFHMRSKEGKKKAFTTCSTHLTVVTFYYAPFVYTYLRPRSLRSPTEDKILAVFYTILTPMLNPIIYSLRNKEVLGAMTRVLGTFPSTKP
Procedure: (§1) Functional dose-response experiments were performed to evaluate the level of DMTS activity of the modified cell line expressing individual putative DMTS receptors. Using a cell-based assay, mouse receptor Olfr1193, Olfr1093, Olfr1097, Olrf166, Olfr169, Olfr738 and Olfr742, and human receptor OR4S2 and OR52N5 were tested in an HEK293T cell line wherein the endogenous RTP1 gene has been activated and the odorant receptor chaperone protein was expressed (described in WO2016/201153). The mouse receptor genes were tagged with a Lucy-FLAG®-Rho tag combination and the human receptors were tagged with a Rho-FLAG® tag combination resulting in a tag:receptor fusion protein for the cell based assay. Receptor genes were co-transfected with the canonical olfactory human G-protein alpha subunit Golf gene and were exposed to increasing concentrations of the malodor odorant. Co-expression of the human Golf activates the Gs transduction pathway that leads to an internal cAMP increase upon binding to the appropriate ligand. Odorant-induced activity was detected by measuring the cAMP increase in the cytosol using an Homogeneous Time Resolved Fluorescence (HTRF) based kit (CisBio, cAMP dynamic 2 kit, cat. 62AM4PEJ). […] The activity levels are reported by the potency of the DMTS induced-response for each receptor as a measure of the EC50 value (the effective concentration at which the receptor responds at its half-maximal activation efficacy level for a given compound).
(§2) Functional dose-response experiments were performed to confirm the DMTS activity on the DMTS receptors identified in Example 2 and to further characterize their response to DMDS. Using the same cell-based assay described in Example 2, mouse receptors Olfr1193, Olfr1093, Olfr1097, Olfr166, Olfr169, Olfr738, Olfr742 and of human odorant receptor OR4S2 were tested with increasing concentration of DMTS, DMDS or butyric acid (control). […] A weak response for OR4S2 and Olfr169 to butyric acid was visible but was too weak to consider butyric acid as a representative ligand for these receptors. The activity levels are reported by the potency of DMTS or DMDS induced-response for each receptor as a measure of the EC50 value, EC50DMTS and EC50DMDS respectively. […] Competitive antagonists at the malodor binding site of these receptors have the potential to reduce the unpleasant perception of both DMTS and DMDS.

mouse receptor Olfr742 = target: T2, mouse receptor Olfr742 (Mus musculus, UniProt A2RTP5); assay: as above
T2 construct: cAMP HTRF
T2 sequence (A2RTP5 1-311): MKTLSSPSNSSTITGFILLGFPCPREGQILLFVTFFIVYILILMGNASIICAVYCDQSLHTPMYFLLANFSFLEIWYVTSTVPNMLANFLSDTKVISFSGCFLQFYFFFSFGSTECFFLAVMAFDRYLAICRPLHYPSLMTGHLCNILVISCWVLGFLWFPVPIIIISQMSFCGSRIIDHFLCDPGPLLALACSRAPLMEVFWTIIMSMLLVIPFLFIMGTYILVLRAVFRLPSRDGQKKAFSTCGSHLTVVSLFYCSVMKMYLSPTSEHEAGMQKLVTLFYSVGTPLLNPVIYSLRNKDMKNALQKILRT
Procedure: as §1, §2

pEC50 (mouse receptor Olfr166; FIG. 2, Example 2, SEQ ID NO: 8): 5.30 | pEC50 (mouse receptor Olfr166; FIG. 5, Example 5, SEQ ID NO: 8): 4.96 | pEC50 (mouse receptor Olfr742; FIG. 2, Example 2, SEQ ID NO: 14): 5.15 | pEC50 (mouse receptor Olfr742; FIG. 5, Example 5, SEQ ID NO: 14): 4.80
SMILES: CSSSC [DMTS, dimethyl trisulfide]
